Tested on: CHLA-90 neuroblastoma cells
Assay: DIMSCAN cytotoxicity assay, CHLA-90
Format: cell-based
Conditions: HPR 3-10 μM, BOC-d-fmk 40 μM, +24 hours, P=0.002 at 3 μM, P<0.001 at >3 μM
Method: Cytotoxicity is determined using the DIMSCAN assay system (R. Proffitt et al., Cytometry 24, 204-213 (1996); T. Frgala et al., Proc. AACR, 36, 303 (1995). The system employs digital imaging microscopy to quantify viable cells, which selectively accumulate fluorescein diacetate to become brightly fluorescent. The system is capable of measuring cytotoxicity over a 4-5 log dynamic range by quenching the residual fluorescence of dead and dying cells with eosin Y and quantifying the total fluorescence of viable cells using digital thresholding. Measured fluorescence is directly proportionate to the number of viable cells. A comparison of the total fluorescence of a drug-treated cell population to the fluorescence of a similar number of untreated cells yields a survival fraction. In brief, 5000 to 10,000 SK-N-RA neuroblastoma cells/well are replicate plated into 60 wells of a 96-well tissue culture plate in 0.1 cc media and allowed to attach overnight. Drug(s) are then added in 0.05 cc media to the final concentrations indicated. There are 12 wells treated per drug concentration. Twelve wells receive drug-vector only to the appropriate final concentration and serve as controls for the plate. Cells are incubated for 96-120 hours at 37° C. in 5% CO2. Fluorescein diacetate is then added to each well in 0.05 cc media to a final concentration of 8 microgram/cc. Cells are incubated for a further 15 minutes at 37° C. and 0.03 cc of 0.5% eosin Y is added to each well. Total fluorescence of viable cells is then measured by digital imaging microscopy.
Methods. Cells were added in 100 μL whole medium per well to 96-well microplates for DIMSCAN cytotoxicity assay as previously described. Cell lines used were the neuroblastoma cell lines CHLA-90 and LAN-6. At Time=0, either all-trans-retinoic acid (ATRA), 13-cis-retinoic acid (13-cis-RA) or a combination of retinoid plus safingol at a 3:1 molar ratio were added in 50 μL whole medium. Plates were incubated and assayed for cytotoxicity by DIMSCAN assay at +120 for CHLA-90 cells and+144 hours for LAN-6 cells.
Methods. To determine the manner in which 4-HPR or HPR+safingol induced cell death in neuroblastoma cells, morphological evidence of apoptosis and/or necrosis was assessed in CHLA-90 cells in the presence or absence of a specific as inhibitor of apoptosis, the neural cell-penetrant, pan-caspase enzyme inhibitor, BOC-d-fink (Enzyme Systems Products, Livermore, Calif.). […] CHLA-90 cells were plated in duplicate in whole medium in Lab Tek chamber slides (Nunc, Naperville, Ill.), allowed to attach for 24 hours, and then treated in the presence or absence of BOC-d-fink (40 μM) for one hour prior to treatment with HPR (10 μM). Control cells were treated with vehicle solvents of 0. 1% ethanol (4-HPR) and/or 0.2% DMSO (BOC-d-fink). Morphological features of apoptosis (DNA condensation and/or apoptotic bodies) were visualized in undetached cells at +24 or +48 hours using blue nuclear fluorescence induced by the supravital DNA stain Hoechst 33342 (10 μg/ml for 30 mins at 37° C.), while necrotic cells and advanced apoptotic cells were recognized by red fluorescent staining with propidium iodide (0.5 μM/ml). Red fluorescently-staining cells with condensed nuclear remnants were scored as apoptotic cells. For cells assayed at +48 hours, additional BOC-d-fink (40 μM) or appropriate control vehicle was added at +24 hours. Cells were observed using filters appropriate for each dye sequentially on an Olympus Vanox epifluorescence microscope. Mutiple random fields of cells (of ˜100-500 cells each) were counted and photographed for viable cells, apoptotic cells, and necrotic cells. To further examine cells treated with HPR, cytotoxicity assays were performed on CHLA-90 cells pretreated with or without 40 μM BOC-d-fmk for one hour prior to the addition of 4-HPR (3-10 μM) and assayed at +24 hours by DIMSCAN assay to assess the effect of caspase inhibition on viability. […]

**Q.** For `CC1=C(/C=C/C(C)=C/C=C/C(C)=C/C(=O)Nc2ccc(O)cc2)C(C)(C)CCC1` [HPR, all-trans-N-(4-hydroxyphenyl)retinamide], which “cytotoxicity in the presence of BOC-d-fmk” value is on record?
**A.** significant cytotoxicity

From patent publication US6368831B1, “Treatment of hyperproliferative disorders” (Childrens Hospital Los Angeles, priority 1998, dated 2002)
